# Assay results reported in ChEMBL document CHEMBL5154806, “Synthesis and Profiling of Highly Selective Inhibitors of Methyltransferase DOT1L Based on Carbocyclic C-Nucleosides” (J Med Chem, 2022).
# Active and inactive are the calls of the source. The rule behind the calls is not given here.
# Columns and labels:
# OCI-AML-3 = test: Cytotoxicity against human OCI-AML-3 cells assessed as reduction of cell viability at 20 to 40 uM incubated for 5 to 15 days by DiOC6/ propidium staining based flow cytometry analysis; format: functional; details: dose 20-40 µM, time 5-15 day
# [1] = Elimination rate constant in fasted BALB/c mouse at 20 mg/kg, iv administered upto 600 mins by HPLC-MS/MS analysis; format: ADME, organism-based; details: in vivo
# [2] = biological target: T1, Histone-lysine N-methyltransferase, H3 lysine-79 specific (Homo sapiens, UniProt Q8TEK3); test: Inhibition of DOT1L in human OCI-AML5 cells assessed as decrease in H3K79 methylation at 1 to 10 uM using histone H3 as substrate incubated for 5 days by immunoblotting assay; format: cell-based; details: dose 1-10 µM, time 5.0 day, DDE = dose-dependent effect
# Target sequence in this assay (Q8TEK3 whole entry, looked up): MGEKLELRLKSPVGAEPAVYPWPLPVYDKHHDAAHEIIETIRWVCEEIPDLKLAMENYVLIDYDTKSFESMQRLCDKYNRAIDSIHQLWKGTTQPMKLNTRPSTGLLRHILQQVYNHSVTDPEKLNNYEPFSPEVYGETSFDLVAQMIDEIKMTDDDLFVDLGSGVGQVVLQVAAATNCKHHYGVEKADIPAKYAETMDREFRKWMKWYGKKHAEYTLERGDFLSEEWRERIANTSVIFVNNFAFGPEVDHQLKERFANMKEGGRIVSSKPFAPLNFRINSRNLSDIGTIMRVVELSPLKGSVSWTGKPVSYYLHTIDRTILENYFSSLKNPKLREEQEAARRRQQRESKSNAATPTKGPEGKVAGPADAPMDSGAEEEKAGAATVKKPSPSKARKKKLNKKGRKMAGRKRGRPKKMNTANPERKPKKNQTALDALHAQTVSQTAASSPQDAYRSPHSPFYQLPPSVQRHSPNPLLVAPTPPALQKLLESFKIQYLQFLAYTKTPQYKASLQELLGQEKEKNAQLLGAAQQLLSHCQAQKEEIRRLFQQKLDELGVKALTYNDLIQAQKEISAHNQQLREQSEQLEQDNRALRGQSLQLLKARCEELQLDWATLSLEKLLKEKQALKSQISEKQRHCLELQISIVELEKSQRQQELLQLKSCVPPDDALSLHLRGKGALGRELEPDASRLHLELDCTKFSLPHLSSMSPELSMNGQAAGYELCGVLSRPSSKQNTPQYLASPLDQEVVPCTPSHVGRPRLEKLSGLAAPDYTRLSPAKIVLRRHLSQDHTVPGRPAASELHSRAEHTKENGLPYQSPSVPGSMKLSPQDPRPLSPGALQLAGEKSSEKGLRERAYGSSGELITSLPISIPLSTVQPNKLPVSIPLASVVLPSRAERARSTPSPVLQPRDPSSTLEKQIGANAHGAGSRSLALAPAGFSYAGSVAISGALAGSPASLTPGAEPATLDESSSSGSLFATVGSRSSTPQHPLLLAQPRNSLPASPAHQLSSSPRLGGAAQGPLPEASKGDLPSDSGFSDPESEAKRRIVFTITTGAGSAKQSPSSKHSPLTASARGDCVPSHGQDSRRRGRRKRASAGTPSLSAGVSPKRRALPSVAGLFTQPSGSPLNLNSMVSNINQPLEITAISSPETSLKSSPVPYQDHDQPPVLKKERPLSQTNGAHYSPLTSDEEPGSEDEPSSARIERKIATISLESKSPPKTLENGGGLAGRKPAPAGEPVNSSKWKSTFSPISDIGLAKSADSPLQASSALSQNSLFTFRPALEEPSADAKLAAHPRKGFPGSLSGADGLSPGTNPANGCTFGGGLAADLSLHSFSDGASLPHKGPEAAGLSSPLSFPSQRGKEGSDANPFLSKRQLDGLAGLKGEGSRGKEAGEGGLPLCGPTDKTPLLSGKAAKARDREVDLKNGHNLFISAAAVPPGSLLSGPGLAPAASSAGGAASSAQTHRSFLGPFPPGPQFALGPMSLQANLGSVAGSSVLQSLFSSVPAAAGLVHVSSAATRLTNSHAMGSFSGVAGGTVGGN
# [3] = Microsomal stability in BALB/c mouse liver microsomes assessed as intrinsic clearance; format: ADME, Microsome; details: read-out: CLH
# SU-DHL-5 = test: Cytotoxicity against human SU-DHL-5 cells assessed as reduction of cell viability up to 10 uM incubated for 72 hrs by celltiter-glo assay; format: functional, cell-based; details: SU-DHL-5, 72 h
# [4] = AUC (0 to infinity) in fasted BALB/c mouse at 5 mg/kg, iv administered upto 600 mins by HPLC-MS/MS analysis; format: ADME, organism-based; set-up: dose 5 mg/kg, time < 600 min, route iv; details: in vivo
# [5] = biological target: T1, Histone-lysine N-methyltransferase, H3 lysine-79 specific; test: Inhibition of human DOT1L by hotspot PMT activity assay
# Target sequence in this assay (Q8TEK3 whole entry): as the sequence (Q8TEK3 whole entry, looked up) above
# [6] = Tmax in fasted BALB/c mouse at 20 mg/kg, iv administered upto 600 mins by HPLC-MS/MS analysis; format: ADME, organism-based; details: in vivo
# [7] = biological target: T1, Histone-lysine N-methyltransferase, H3 lysine-79 specific; test: Inhibition of DOT1L in human MOLM-13 cells assessed as decrease in H3K79 methylation at 1 to 10 uM using histone H3 as substrate incubated for 5 days by immunoblotting assay; format: cell-based; details: dose 1-10 µM, time 5.0 day, DDE = dose-dependent effect
# Target sequence in this assay (Q8TEK3 whole entry, looked up): as above
# [8] = Cmax in fasted BALB/c mouse at 5 mg/kg, iv administered upto 600 mins by HPLC-MS/MS analysis; format: ADME, organism-based; set-up: time < 600 min, dose 5 mg/kg, route iv; details: in vivo
# [9] = Cmax in fasted BALB/c mouse at 20 mg/kg, iv administered upto 600 mins by HPLC-MS/MS analysis; format: ADME, organism-based; set-up: time < 600 min, dose 20 mg/kg, route iv; details: in vivo
# [10] = Tmax in fasted BALB/c mouse at 5 mg/kg, iv administered upto 600 mins by HPLC-MS/MS analysis; format: ADME, organism-based; details: in vivo
# [11] = Clearance in fasted BALB/c mouse at 5 mg/kg, iv administered upto 600 mins by HPLC-MS/MS analysis; format: ADME, organism-based; details: in vivo
# [12] = Metabolic stability in BALB/c mouse liver microsomes assessed as parent compound remaining measured after 40 mins; format: ADME, Microsome; details: read-out: Stability
# MOLM-13 [13] = test: Downregulation of MEIS1 gene in human MOLM-13 cells at 10 uM measured after 3 to 10 days by qPCR analysis; format: functional, cell-based; details: time 3-10 day
# MV4-11 = test: Cytotoxicity against human MV4-11 cells assessed as reduction of cell viability up to 10 uM incubated for 72 hrs by celltiter-glo assay; format: functional, cell-based; details: MV4-11, 72 h
# [14] = Volume of distribution in fasted BALB/c mouse at 20 mg/kg, iv administered upto 600 mins by HPLC-MS/MS analysis; format: ADME, organism-based; details: in vivo
# SUD4 = test: Cytotoxicity against human SU-DHL-4 cells assessed as reduction of cell viability at 20 to 40 uM incubated for 5 to 15 days by DiOC6/ propidium staining based flow cytometry analysis; format: functional; details: dose 20-40 µM, time 5-15 day
# MOLM-13 [15] = test: Cytotoxicity against human MOLM-13 cells assessed as reduction of cell viability at 20 to 40 uM incubated for 5 to 15 days by DiOC6/ propidium staining based flow cytometry analysis; format: functional; details: dose 20-40 µM, time 5-15 day
# [16] = Clearance in fasted BALB/c mouse at 20 mg/kg, iv administered upto 600 mins by HPLC-MS/MS analysis; format: ADME, organism-based; details: in vivo
# [17] = AUC (0 to t) in fasted BALB/c mouse at 20 mg/kg, iv administered upto 600 mins by HPLC-MS/MS analysis; format: ADME, organism-based; set-up: dose 20 mg/kg, time < 600 min, route iv; details: in vivo
# [18] = biological target: T1, Histone-lysine N-methyltransferase, H3 lysine-79 specific; test: Inhibition of DOT1L in human SU-DHL-4 cells assessed as decrease in H3K79 methylation at 1 to 10 uM using histone H3 as substrate incubated for 3 days by immunoblotting assay; format: cell-based; details: dose 1-10 µM, time 3.0 day, DDE = dose-dependent effect
# Target sequence in this assay (Q8TEK3 whole entry, looked up): as above
# [19] = biological target: T1, Histone-lysine N-methyltransferase, H3 lysine-79 specific; test: Inhibition of DOT1L in human OCI-AML5 cells assessed as decrease in H3K79 methylation at 1 to 10 uM using histone H3 as substrate incubated for 3 days by immunoblotting assay; format: cell-based; details: dose 1-10 µM, time 3.0 day, DDE = dose-dependent effect
# Target sequence in this assay (Q8TEK3 whole entry, looked up): as above
# [20] = Volume of distribution in fasted BALB/c mouse at 5 mg/kg, iv administered upto 600 mins by HPLC-MS/MS analysis; format: ADME, organism-based; details: in vivo
# [21] = Elimination rate constant in fasted BALB/c mouse at 5 mg/kg, iv administered upto 600 mins by HPLC-MS/MS analysis; format: ADME, organism-based; details: BALB/c, in vivo
# MOLM-13 [22] = test: Cytotoxicity against human MOLM-13 cells assessed as reduction of cell viability up to 10 uM incubated for 72 hrs by celltiter-glo assay; format: functional, cell-based; details: MOLM-13, 72 h
# [23] = Half life in fasted BALB/c mouse at 5 mg/kg, iv administered upto 600 mins by HPLC-MS/MS analysis; format: ADME, organism-based; details: BALB/c, in vivo
# [24] = biological target: T1, Histone-lysine N-methyltransferase, H3 lysine-79 specific; test: Inhibition of DOT1L in human SU-DHL-4 cells assessed as decrease in H3K79 methylation at 1 to 10 uM using histone H3 as substrate incubated for 5 days by immunoblotting assay; format: cell-based; details: dose 1-10 µM, time 5.0 day, DDE = dose-dependent effect
# Target sequence in this assay (Q8TEK3 whole entry, looked up): as above
# [25] = AUC (0 to t) in fasted BALB/c mouse at 5 mg/kg, iv administered upto 600 mins by HPLC-MS/MS analysis; format: ADME, organism-based; set-up: time < 600 min, dose 5 mg/kg, route iv; details: in vivo
# [26] = AUC (0 to infinity) in fasted BALB/c mouse at 20 mg/kg, iv administered upto 600 mins by HPLC-MS/MS analysis; format: ADME, organism-based; set-up: dose 20 mg/kg, time < 600 min, route iv; details: in vivo
# MOLM-13 [27] = test: Cytotoxicity against human MOLM-13 cells assessed as metabolic activity at 1 to 40 uM incubated for 10 to 15 days by WST-1 assay; format: functional, cell-based; details: dose 1-40 µM, time 10-15 day
# [28] = Half life in fasted BALB/c mouse at 20 mg/kg, iv administered upto 600 mins by HPLC-MS/MS analysis; format: ADME, organism-based; details: in vivo
# SK-N-MC = test: Cytotoxicity against human SK-N-MC cells assessed as reduction of cell viability up to 10 uM incubated for 72 hrs by celltiter-glo assay; format: functional, cell-based
# [29] = biological target: T1, Histone-lysine N-methyltransferase, H3 lysine-79 specific; test: Binding affinity to human DOT1L assessed as binding free energy difference
# Target sequence in this assay (Q8TEK3 whole entry, looked up): as above
# MOLM-13 [30] = test: Downregulation of HOXA9 gene in human MOLM-13 cells at 10 uM measured after 3 to 10 days by qPCR analysis; format: functional, cell-based; details: time 3-10 day
# [31] = Acute toxicity in BALB/c mouse at 20 mg/kg,iv; format: organism-based; details: in vivo
# [32] = biological target: T1, Histone-lysine N-methyltransferase, H3 lysine-79 specific; test: Inhibition of DOT1L in human MOLM-13 cells assessed as decrease in H3K79 methylation at 1 to 10 uM using histone H3 as substrate incubated for 3 days by immunoblotting assay; format: cell-based; details: dose 1-10 µM, time 3.0 day, DDE = dose-dependent effect
compound,measurement,setting,value
CC(C)N(C[C@H]1C[C@@H](c2ccc3c(N)ncnn23)[C@H](O)[C@@H]1O)[C@H]1C[C@@H](CCc2nc3cc(C(C)(C)C)ccc3[nH]2)C1,Activity,OCI-AML-3,Active
same,k el at 10 h,[1],0.000123 s⁻¹
same,Activity,[2],Dde
same,microsomal CLint,[3],56 µL/min/mg
same,EC50,SU-DHL-5,9 µM
same,AUC(0-inf),[4],5850 ng·h/mL
same,IC50,[5],0.0021 µM
same,Tmax,[6],5 min
same,Activity,[7],Dde
same,Cmax,[8],20.6 µg/mL
same,Cmax,[9],91.2 µg/mL
same,Tmax,[10],5 min
same,clearance,[11],14.2 mL/min/kg
same,remaining at 40 min,[12],41%
same,Activity,MOLM-13 [13],Active
same,EC50,MV4-11,1.7 µM
same,Vd,[14],1.29 L/kg
same,Activity,SUD4,Active
same,Activity,MOLM-13 [15],Active
same,clearance,[16],9.54 mL/min/kg
same,AUC(0-t) at 10 h,[17],34700 ng·h/mL
same,Activity,[18],Dde
same,Activity,[19],Dde
same,Vd,[20],1.18 L/kg
same,k el at 10 h,[21],0.000202 s⁻¹
same,EC50,MOLM-13 [22],7.7 µM
same,half-life,[23],57.2 min
same,Activity,[24],Dde
same,AUC(0-t) at 10 h,[25],5800 ng·h/mL
same,AUC(0-inf),[26],35000 ng·h/mL
same,Activity,MOLM-13 [27],Active
same,half-life,[28],93.6 min
same,EC50,SK-N-MC,8.8 µM
same,deltaG,[29],-0.717 kcal/mol
same,Activity,MOLM-13 [30],Active
same,Activity,[31],Non-Toxic
same,Activity,[32],Dde
